Source: US6268391A, “Benzylidene-1,3-dihydro-indol-2-one derivatives a receptor tyrosine kinase inhibitors, particularly of Raf kinases” (Glaxo Wellcome Inc., priority 1997, dated 2001)

These compounds were tested against T1, Human cRaf1 (Homo sapiens, UniProt P04049) (assay: Raf kinase assay (cRaf1 assay / Raf/MEK cascade assay)). Conditions: Table 3; read-out: Raf Kinase activity.
T1 construct: poly-histidine (C); made in house
Type: biochemical
Description: The potency of cRaf1 dependent kinase activity was measured using one of two assay formats. The first measured cRaf1 catalyzed phosphorylation of MEK1, the natural substrate for cRaf1. This assay is referred to as the cRaf1 assay. The second measured the ability of cRaf1 to phosphorylate and activate MEK1. This assay is referred to as the Raf/MEK cascade assay.
Human cRaf1 tagged with poly histidine at the carboxyterminus was expressed in a baculovirus expression system and purfied by Ni chelate affinity chromatography. Human MEK1 was expressed in E. coli as a fusion protein with Glutathione-S-transferase, and purified by glutathione sepharose affinity chromatography. […] Reactions contained cRaf1 (20 nM), MEK1 (100-500 nM), [γ-^32 P]ATP ([…]), Mg^2+ (10 mM), MOPS (50 mM, pH 7.5). Reactions were incubated at room temperature for periods of time ranging from 20-120 minutes. Inhibitors were diluted in 100% DMSO prior to addition to the assay. Reactions were terminated with an equal volume of 0.5% phosphoric acid. MEK1 phosphorylation was detected by scintillation counting following collection of protein onto phosphocellulose filters.
Human cRaf1 and MEK1 were purified as described above. A peptide substrate phosphorylated by MEK1 was used as the final phosphoryl group acceptor. […] Assay conditions were the same as those described above except for the following modifications. Reactions contained cRaf1 (1-5 nM), MEK1 (60 nM), and peptide ([…]).

| Compound | IC50 [nM] |
| --- | --- |
| O=C(OCc1cccnc1)Oc1c(Br)cc(C=C2C(=O)Nc3ccc(Cl)cc32)cc1Br [Example 149, 2,6-Dibromo-4-[(5-chloro-2-oxo-1,2-dihydro-3H-indol-3-ylidene)methyl]phenyl 3-pyridinylmethyl carbonate] | 10000 to 100000 |
| 2,6-Dibromo-4-[(5-glycoloyl-2-oxo-1,2-dihydro-3H-indol-3-ylidene)methyl]phenyl ethyl carbonate [Example 155] | 10000 to 100000 |
| CCN(CC)C(=O)Oc1c(Br)cc(C=C2C(=O)Nc3ccc(C(=O)c4ccccc4)cc32)cc1Br [Example 167, 4-[(5-Benzoyl-2-oxo-1,2-dihydro-3H-indol-3-yildene)methyl]-2,6-dibromophenyl N,N-diethylcarbamate] | 10000 to 100000 |
| CC(=O)Oc1c(Br)cc(C=C2C(=O)Nc3ccc(Cl)cc32)cc1Br [Example 103, 2,6-Dibromo-4-[(5-chloro-2-oxo-1,2-dihydro-3H-indol-3-ylidene)methyl]phenyl acetate] | 10000 to 100000 |
| CCNc1nc(-c2ccc3c(c2)C(=Cc2cc(Br)c(O)c(Br)c2)C(=O)N3)cs1 [Example 94, 3-(3,5-Dibromo-4-hydroxy-benzylidene)-5-(2-(ethylamino)-4H-thiazol-4-yl)-1,3-dihydro-indol-2-one] | < 1000 |
| CCOc1cc(C=C2C(=O)Nc3ccc(C(=O)CC(C)C)cc32)cc(Br)c1O [Example 10, 3-(3-Bromo-5-ethoxy-4-hydroxy-benzylidene)-5-(3-methyl-butanoyl)-1,3-dihydro-indol-2-one] | < 1000 |
| O=C1Nc2ccc(I)cc2C1=Cc1cc(Br)c(OC(=O)N(CCO)CCO)c(Br)c1 [Example 87, N-[bis-(2-hydroxy-ethyl)]carbamic acid, 2,6-dibromo-4-(5-iodo-2-oxo-1,3-dihydro-indol-3-ylidenemethyl) phenyl ester] | 10000 to 100000 |
| NC(=O)c1ccc2c(c1)C(=Cc1cc(Br)c(O)c(Br)c1)C(=O)N2 [Example 137, 3-(3,5-Dibromo-4-hydroxy-benzylidene)-2-oxo-2,3-dihydro-1H-indol-5-carboxylic acid amide] | < 1000 |
| CC(C)N(C(=O)Oc1c(Br)cc(C=C2C(=O)Nc3ccc(Cl)cc32)cc1Br)C(C)C [Example 106, 2,6-Dibromo-4-[(5-chloro-2-oxo-1,2-dihydro-3H-indol-3-ylidene)methyl]phenyl N,N-diisopropylcarbamate] | 10000 to 100000 |
| CCN(CC)C(=O)Oc1c(Br)cc(C=C2C(=O)Nc3ccc(I)cc32)cc1Br [Example 154, 2,6-Dibromo-4-[(5-iodo-2-oxo-1,2-dihydro-3H-indol-3-ylidene)methyl]phenyl N,N-diethylcarbamate] | 10000 to 100000 |
| C=Cc1ccc2c(c1)NC(=O)C2=Cc1cc(Br)c(O)c(Br)c1 [Example 176, 3-[(3,5-Dibromo-4-hydroxyphenyl)methylidene]-6-vinyl-1,3-dihydro-2H-indol-2-one] | < 1000 |
| Nc1ccc2c(c1)C(=Cc1cc(Br)c(O)c(Br)c1)C(=O)N2 [Example 166, 5-Amino-3-[(3,5-dibromo-4-hydroxyphenyl)methylidene]-1,3-dihydro-2H-indol-2-one] | < 1000 |
| CCC(=O)c1ccc2c(c1)C(=Cc1cc(Br)c(O)c(Br)c1)C(=O)N2 [Example 32, 3-(3,5-Dibromo-4-hydroxy-benzylidene)-5-propionyl-1,3-dihydro-indol-2-one] | < 1000 |
| O=C1Nc2ccc(C(=O)NCc3ccccc3)cc2C1=Cc1cc(Br)c(O)c(Br)c1 [Example 162, N-Benzyl-3-[(3,5-dibromo-4-hydroxyphenyl)methylidene]-2-oxo-5-indolinecarboxamide] | < 1000 |
| CCOc1cc(C=C2C(=O)Nc3ccc(-c4csc(C)n4)cc32)cc(Br)c1O [Example 3, 3-(3-Bromo-5-ethoxy-4-hydroxy-benzylidene)-5-(2-methyl-thiazol-4-yl)-1,3-dihydro-indol-2-one] | < 1000 |
| CCOc1cc(C=C2C(=O)Nc3ccc(I)cc32)cc(Br)c1O [Example 42, 3-(3-Bromo-5-ethoxy-4-hydroxy-benzylidene)-5-iodo-1,3-dihydro-indol-2-one] | < 1000 |
| O=C1Nc2ccc(-c3ccsc3)cc2C1=Cc1cc(Br)c(O)c(Br)c1 [Example 139, 3-(3,5-Dibromo-4-hydroxy-benzylidene)-5-thiophen-3-yl-1,3-dihydro-indol-2-one] | < 1000 |
| CCN(CC)C(=O)Oc1c(Br)cc(C=C2C(=O)Nc3ccc(S(N)(=O)=O)cc32)cc1Br [Example 164, 4-[5-(Aminosulfonyl)-2-oxo-1,2-dihydro-3H-indol-3-ylidene]methyl-2,6-dibromophenyl N,N-diethylcarbamate] | 1000 to 10000 |
| Cc1nc(-c2ccc3c(c2)C(=Cc2cc(Cl)c(O)c(Cl)c2)C(=O)N3)cs1 [Example 4] | < 1000 |

Other lines, results leading:

| IC50 [nM] | Compound |
| --- | --- |
| < 1000 | Cc1nnc(-c2ccc3c(c2)C(=Cc2cc(Br)c(O)c(Br)c2)C(=O)N3)o1 [Example 145, 3-(3,5-Dibromo-4-hydroxy-benzylidene)-5-(5-methyl-[1,3,4]oxadiazol-2-yl)-1,3-dihydro-indol-2-one] |
| < 1000 | COc1cc(C=C2C(=O)Nc3ccc(Cl)cc32)cc([N+](=O)[O-])c1O [Example 53, 5-Chloro-3-(4-hydroxy-3-methoxy-5-nitro-benzylidene)-1,3-dihydro-indol-2-one] |
| < 1000 | CCN(CC)CC(=O)c1ccc2c(c1)C(=Cc1cc(Br)c(O)c(Br)c1)C(=O)N2 [Example 83, 3-(3,5-Dibromo-4-hydroxy-benzylidene)-5-(2-diethylamino-acetyl)-1,3-dihydro-indol-2-one] |
| < 1000 | CN(C)CC(=O)c1ccc2c(c1)C(=Cc1cc(Br)c(O)c(Br)c1)C(=O)N2 [Example 107, 3-(3,5-Dibromo-4-hydroxy-benzylidene)-5-(2-dimethylamino-acetyl)-1,3-dihydro-indol-2-one] |
| < 1000 | O=C1Nc2ccc(-c3cccnc3)cc2C1=Cc1cc(Br)c(O)c(Br)c1 [Example 138, 3-(3,5-Dibromo-4-hydroxy-benzylidene)-5-pyrid-3-yl-1,3-dihydro-indol-2-one] |
| < 1000 | CCN(CC)S(=O)(=O)c1ccc2c(c1)C(=Cc1cc(Br)c(O)c(Br)c1)C(=O)N2 [Example 34, 3-(3,5-Dibromo-4-hydroxy-benzylidene)-2-oxo-2,3 dihydro-1H-indole-5-sulfonic acid N,N-diethylamide] |
| < 1000 | NS(=O)(=O)c1ccc2c(c1)C(=Cc1cc(Cl)c(O)c(Cl)c1)C(=O)N2 [Example 99, 3-(3,5-Dichloro-4-hydroxy-benzylidene)-2-oxo-2,3-dihydro-1H-indole-5-sulfonic acid amide] |
| < 1000 | COC(=O)c1sccc1-c1ccc2c(c1)C(=Cc1cc(Br)c(O)c(Br)c1)C(=O)N2 [Example 177, Methyl 3-3-[(3,5 dibromo-4-hydroxyphenyl)methylidene]-2-oxo-2,3-dihydro-1H-indol-5-yl-2-thiophenecarboxylate] |
| < 1000 | O=C1Nc2ccc(C(=O)c3cccc([N+](=O)[O-])c3)cc2C1=Cc1cc(Br)c(O)c(Br)c1 [Example 96, 3-(3,5-Dibromo-4-hydroxy-benzylidene)-5-(3-nitro-benzoyl)-1,3-dihydro-indol-2-one] |
| < 1000 | O=C1Nc2ccc(-c3cnco3)cc2C1=Cc1cc(Cl)c(O)c(Cl)c1 [Example 17] |
| < 1000 | CNc1nc(-c2ccc3c(c2)C(=Cc2cc(Cl)c(O)c(Cl)c2)C(=O)N3)cs1 [Example 141] |
| < 1000 | CC(=O)Nc1nc(-c2ccc3c(c2)C(=Cc2cc(Br)c(O)c(Br)c2)C(=O)N3)cs1 [Example 136, 5-(N-Acetyl-2-amino-thiazol-4-yl)-3-(3,5-dibromo-4-hydroxy-benzylidene)-1,3-dihydro-indol-2-one] |
| < 1000 | CCC(=O)c1ccc2c(c1)C(=Cc1cc(Cl)c(O)c(Cl)c1)C(=O)N2 [Example 98, 3-(3,5-Dichloro-4-hydroxy-benzylidene)-5-propionyl-1,3-dihydro-indol-2-one] |
| < 1000 | O=C1Nc2ccc(OC(F)(F)F)cc2C1=Cc1cc(Br)c(O)c(Br)c1 [Example 40, 3-(3,5-Dibromo-4-hydroxy-benzylidene)-5-trifluoromethoxy-1,3-dihydro-indol-2-one] |
| < 1000 | O=C1Nc2ccc(C(=O)C3CCCC3)cc2C1=Cc1cc(Br)c(O)c(Br)c1 [Example 26, 5-Cyclopentanecarbonyl-3-(3,5-dibromo-4-hydroxy-benzylidene)-1,3-dihydro-indol-2-one] |
| < 1000 | Cc1ccc2c3c(ccc2n1)NC(=O)C3=Cc1cc(Br)c(O)c(Br)c1 [Example 165, 1-[(3,5-Dibromo-4-hydroxyphenyl)methylidene]-7-methyl-1,3-dihydro-2H-pyrrolo[3,2-f]quinolin-2-one] |
| < 1000 | CCOc1cc(C=C2C(=O)Nc3ccc(C(=O)c4ccncc4)cc32)cc(Br)c1O [Example 14, 3-(3-Bromo-5-ethoxy-4-hydroxy-benzylidene)-5-(pyridine-4-carbonyl)-1,3-dihydro-indol-2-one] |
| < 1000 | O=C1Nc2ccc(C(=O)c3cccnc3)cc2C1=Cc1cc(Cl)c(O)c(Cl)c1 [Example 12, 3-(3,5-Dichloro-4-hydroxy-benzylidiene)-5-(pyridine-3-carbonyl)-1,3-dihydro-indol-2-one] |
